Measurements published in patent US20260256135A1, “SOLVENT COMPOSITION FOR AGROCHEMICAL FORMULATIONS” (SPECIALTY OPERATIONS FRANCE, priority 2023, published 2026).

Assay: Test 1: maximal solubility of an active (solo) in a solvent system, visual observation
Format: physicochemical
Settings: active dissolved in the solvent system; limpid with the naked eye
Source text: The maximal solubility of an active or a combo of actives in a solvent system is characterized by visual observation. At a given concentration, if the mixture is limpid (with the naked eye), the active ingredient(s) is (are) considered to be soluble in the solvent system at this concentration. However, if a sedimentation of the active ingredient(s) appears, it is not soluble anymore in the solvent system and the maximal solubility is reached. The maximal solubility is thus defined as the maximum amount of active ingredient(s) that can be dissolved in the solvent system, equal to the amount at which the mixture remains limpid (with the naked eye). Each active ingredient or combo is added little by little in different solvent systems. The solutions are magnetically stirred until complete dissolution. Then an additional amount of active ingredient is added and this operation is repeated until the last part of active ingredient added could not be dissolved anymore, taking care to stir the solution after each addition of active ingredient.

maximal solubility of Difenoconazole	maximal solubility of Picoxystrobin	maximal solubility of Pinoxaden	SMILES
44.5 g/100 g of solvent	27.3 g/100 g of solvent	11.4 g/100 g of solvent	CCCCOC(=O)CCC(C)=O [GFbio ReSolv 200, n-butyl levulinate]
65.5 g/100 g of solvent	43.9 g/100 g of solvent	13.0 g/100 g of solvent	COC(=O)C(C)CCC(=O)N(C)C (stereo not drawn) [Rhodiasolv ® Polarclean, methyl-5-(dimethylamino)-2-methyl-5-oxopentanoate]
